In patent US7598397B2, “Sulfonamide peri-substituted bicyclics for occlusive artery disease” (deCODE genetics ehf, priority 2004, dated 2009):
Where two headings read alike, the source gives them in different places.

Columns and labels:
human platelets = assay: platelet aggregation in vitro, human platelets; assay type: cell-based; settings: Serum % 50, read-out: IC50 (nM) for Test Compounds
Protocol: (§1) The compounds of the invention were assayed for their effects on platelet aggregation in vitro. In experiments with human platelets, whole blood was extracted from overnight-fasted human donors. Each experiment was performed with blood from single individual. In experiments with rodent platelets, whole blood was gathered from the heart of female mice or male rats under isofluran (Abbott) anaesthesia. Blood was pooled from two or ten individual rodents for each experiment in the case of rat and mouse experiments, respectively. In all cases, blood was collected into 3.8% sodium citrate tubes (Greiner Bio-one). Platelet-rich plasma (PRP) was obtained by centrifugation at 100×g for 15 min at 25° C. for humans, at 150×g for rats, or at 80×g for 10 min for mice. Platelet-poor plasma was obtained by centrifugation of the remaining blood at 2,400×g for 10 min at 25° C. After counting in an Autocounter (Model 920 EO, Swelab) platelets were diluted when necessary to the desired stock concentrations (200,000-300,000 platelets/μl) using 0.9% NaCl isotonic solution (Braun).
Platelet aggregation was determined by light absorbance using a platelet aggregometer with constant magnetic stirring (Model 490, Chronolog Cop., Havertown, Pa., USA), using a volume of 500 μl per cuvette. During the performance of the experiments, platelet solution was continually agitated by mild horizontal shaking. Collagen (Sigma) and PGE2 or sulprostone (Cayman Chemicals) were used as accelerants of platelet aggregation. Compounds used for this assay were dissolved and stored in a 100% DMSO solution. After dilution, the final DMSO concentration in the assay was lower than 0.1% v/v. […] Acceleration agents and EP3 test compounds were diluted in isotonic solution at the desired concentration. Sigmoidal non-lineal regression was used to calculate the concentration of test compound required to inhibit platelet aggregation by 50% (IC50). IC50 values of test compounds were calculated using GraphPad Prism 3.02 for Windows (GraphPad Software, San Diego Calif. USA). […]

female C57BL/6 mice = assay: pulmonary thromboembolism induced by arachidonic acid (platelet aggregation in vivo); set-up: species or system mouse; settings: 100 mg/kg orally, 30 min before arachidonic acid 30 mg/kg i.v.; survival one hour after challenge
Protocol: The compounds of the invention also were assayed for their effects on platelet aggregation in vivo. An in vivo test of platelet activation is the induction of pulmonary thromboembolism by arachidonic acid, a precursor of prostaglandin formation. Inhibitors of prostaglandin synthesis, e.g., a COX-1 inhibitor such as asprin, are protective in the assay. For the pulmonary thromboembolism assay, concious female C57BL/6 mice were dosed orally with the test compounds and 30 min later thromboembolism was induced by injection of arachidonic acid into a tail vein at a dose of 30 mg per kg body weight. Survival was evaluated one hour after the challenge with arachidonic acid, as mice that survive for that length of time usually recovered fully. The arachidonic acid injection was given via a lateral tail vein in a mouse that had been warmed briefly under a heat lamp (dilation of the tail veins using heat facilitates placing the injection). An insulin syringe, 0.5 mL (from Becton Dickinson) was used for dosing. The dose volume given of both the test compound and the arachidonic acid was adjusted to the weight of the mouse (the dose volume p.o. for test compounds and i.v. for arachidonic acid solution was 10 μL and 5 μL per gram body weight, respectively). The survival rate for mice treated with arachidonic acid only was 1 per 10 mice evaluated or 10%. Survival rates for mice treated with test compounds (100 mg/kg, orally) and then arachidonic acid are shown below in Table 4.

rat platelets = assay: platelet aggregation in vitro, rat platelets; assay type: cell-based; settings: Serum % 20, read-out: IC50 (nM) for Test Compounds
Protocol: as §1
Platelet aggregation was determined by light absorbance using a platelet aggregometer with constant magnetic stirring (Model 490, Chronolog Cop., Havertown, Pa., USA), using a volume of 500 μl per cuvette. […] IC50 values of test compounds were calculated using GraphPad Prism 3.02 for Windows (GraphPad Software, San Diego Calif. USA). […]

prostanoid EP3 receptors = target: T1, prostanoid EP3 receptors (Homo sapiens, UniProt P43115); assay: binding on prostanoid EP3 receptors (method of Abramovitz et al.); settings: read-out: Activity (EP3 receptor binding, IC50 class)
T1 sequence (P43115 1-390): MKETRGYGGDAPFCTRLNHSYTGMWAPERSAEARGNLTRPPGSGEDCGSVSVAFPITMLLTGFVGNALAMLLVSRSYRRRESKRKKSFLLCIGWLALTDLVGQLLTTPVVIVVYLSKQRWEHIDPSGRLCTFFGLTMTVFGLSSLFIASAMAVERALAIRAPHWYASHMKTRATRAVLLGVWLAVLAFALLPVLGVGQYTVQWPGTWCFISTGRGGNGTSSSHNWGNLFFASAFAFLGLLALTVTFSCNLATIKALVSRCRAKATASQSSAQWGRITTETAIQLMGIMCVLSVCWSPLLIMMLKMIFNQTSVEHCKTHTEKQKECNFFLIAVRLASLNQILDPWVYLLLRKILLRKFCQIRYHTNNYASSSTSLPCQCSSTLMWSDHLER
Protocol: The compounds of the invention were assayed for their binding on prostanoid EP3 receptors according to the method of Abramovitz et al. [Bioch. Biophys.

| IC50 (prostanoid EP3 receptors) [nM] | SMILES | also measured |
| --- | --- | --- |
|  | Cc1cn(Cc2ccc3ccccc3c2)c2c(C=CC(=O)NS(=O)(=O)c3cc(Cl)c(Cl)s3)cc(F)cc12 [Compound P068] | No. mice surviving/Total no. of mice evalauted (female C57BL/6 mice): 4/14; Survival rate (female C57BL/6 mice): 28% |
| < 1000 | CC12CCCC(C=CC(=O)NS(=O)(=O)c3cc(Cl)c(Cl)s3)=C1N(Cc1ccc3ccccc3c1)C(=O)C2 (centres unmarked) [Compound P253] | IC50 (human platelets; agonist Sulprostone (100 nM) and collagen (0.125 ug.mL)): 15.9 nM |
|  | O=C(COc1cccc2[nH]cc(S(=O)(=O)c3ccc4ccccc4c3)c12)NS(=O)(=O)c1cc(Cl)c(Cl)s1 [Compound P150] | No. mice surviving/Total no. of mice evalauted (female C57BL/6 mice): 4/8; Survival rate (female C57BL/6 mice): 50% |
| < 1000 | Cc1ccc(S(=O)(=O)NC(=O)OCc2cccc3ccn(Cc4ccc5ccccc5c4)c23)cc1 [Compound P038] |  |
| < 1000 | Cn1cc(C=CC(=O)NS(=O)(=O)c2c(F)c(F)c(F)c(F)c2F)c2c(Oc3ccc4ccccc4c3)cccc21 [Compound P373] |  |
| < 1000 | O=C(C=Cc1cccc2c1C(Nc1ccc(Cl)cc1Cl)C(=O)N2)NS(=O)(=O)c1cc(Cl)c(Cl)s1 (centres unmarked) [Compound P287] |  |
| < 1000 | Cn1cc(C=CC(=O)NS(=O)(=O)c2ccc(F)c(F)c2)c2c(Oc3ccc(F)c(F)c3)cccc21 [Compound P319] |  |
| < 1000 | O=C(C=Cc1cccc2c1N(Cc1ccc3ccccc3c1)C(=O)C2)NS(=O)(=O)c1cc(Cl)c(Cl)s1 [Compound P179] |  |
| < 1000 | Cc1cn(Cc2ccc(Cl)cc2Cl)c2c(C=CC(=O)NS(=O)(=O)c3cc(Cl)c(Cl)s3)cccc12 [Compound P079] |  |
| < 1000 | CN1C(=O)C(=Nc2ccc3ccccc3c2)c2c(C=CC(=O)NS(=O)(=O)c3cc(Cl)c(Cl)s3)cccc21 [Compound P245] |  |
| < 1000 | Cn1cc(C=CC(=O)NS(=O)(=O)c2ccc(F)c(F)c2)c2c(Oc3ccc(Cl)c(F)c3)cccc21 [Compound P332] |  |
| < 1000 | COCc1cn(Cc2ccc(Cl)cc2Cl)c2c(C=CC(=O)NS(=O)(=O)c3cccs3)cccc12 [Compound P070] |  |
| < 1000 | O=C(C=Cc1cccc2ccn(Cc3ccc4ccccc4c3)c12)NS(=O)(=O)c1cccs1 [Compound P001] |  |
| < 1000 | CC1(F)C(=O)N(Cc2ccc3ccccc3c2)c2c(C=CC(=O)NS(=O)(=O)c3cccs3)cccc21 (centres unmarked) [Compound P160] |  |
| < 1000 | Cc1cn(Cc2ccc(F)cc2)c2c(C=CC(=O)NS(=O)(=O)c3cc(F)cc(F)c3)cc(F)cc12 [Compound P316] |  |
| < 1000 | Cc1cn(Cc2cn3ccccc3n2)c2c(C=CC(=O)NS(=O)(=O)c3cccc(F)c3)cc(F)cc12 [Compound P401] |  |
| < 1000 | Cn1cc(C=CC(=O)NS(=O)(=O)c2ccc(Cl)cc2)c2c(Oc3ccc4ccccc4c3)cccc21 [Compound P365] |  |
| 1000 to 10000 | O=C(CN1CCCc2cccc(OCc3ccc4ccccc4c3)c21)NS(=O)(=O)c1cccs1 [Compound P015] |  |
| < 1000 | COc1ccc(S(=O)(=O)NC(=O)COc2cccc3[nH]cc(S(=O)(=O)c4ccc5ccccc5c4)c23)cc1 [Compound P193] |  |
| < 1000 | O=C(COc1cccc2[nH]cc(Sc3ccc4ccccc4c3)c12)NS(=O)(=O)c1ccc(F)cc1 [Compound P225] |  |
| 1000 to 10000 | Cc1nc2cccc(OCC(=O)NS(=O)(=O)c3cccs3)c2n1Cc1ccc2ccccc2c1 [Compound P037, Thiophen-2-sulfonic acid [2-(2-methyl-3-naphthalen-2-ylmethyl-3H-benzoimidazol-4-yloxy)-acetyl] amide] |  |
| < 1000 | Cn1cc(C=CC(=O)NS(=O)(=O)c2ccc(F)c(F)c2)c2c(Oc3ccc(F)cc3Cl)cccc21 [Compound P341] |  |
| < 1000 | O=C(C=Cc1cc(F)cc2ccn(Cc3ccc(Cl)cc3Cl)c12)NS(=O)(=O)c1cccs1 [Compound P061] |  |
| < 1000 | CC1(O)C(=O)N(Cc2ccc(Cl)cc2Cl)c2c(C=CC(=O)NS(=O)(=O)c3cc(Cl)c(Cl)s3)cccc21 (centres unmarked) [Compound P133] |  |
| < 1000 | O=C(COc1cccc2[nH]cc(Sc3ccc(Cl)cc3Cl)c12)NS(=O)(=O)c1cc(Cl)c(Cl)s1 [Compound P205] |  |

| SMILES | IC50 (prostanoid EP3 receptors) [nM] | also measured |
| --- | --- | --- |
| Cc1cn(Cc2ccc(Cl)cc2Cl)c2c(C=CC(=O)NS(=O)(=O)c3cc(Cl)c(Cl)s3)cc(F)cc12 [Compound P067] | < 1000 | IC50 (human platelets; Homo sapiens, agonist PGE2 (940 nM) and collagen (0.125 ug.mL)): 5.15 nM; IC50 (human platelets; Homo sapiens, agonist Sulprostone (100 nM) and collagen (0.125 ug.mL)): 9.21 nM; No. mice surviving/Total no. of mice evalauted (female C57BL/6 mice): 15/22; Survival rate (female C57BL/6 mice): 68%; IC50 (rat platelets; agonist PGE2 (940 nM) and collagen (2.0 ug.mL)): 304 nM; IC50 (rat platelets; agonist Sulprostone (100 nM) and collagen (2.0 ug.mL)): 87.8 nM |
